{"source": "patent US8207135B2", "about": "“Compositions for and methods of enhancing the immune response to antigens” (Wittycell, priority 2007, dated 2012)", "key": {"OVA-specific IgG1": {"test_system": "OVA-specific IgG1", "experiment": "OVA-specific IgG1 ELISA after intramuscular immunization", "type": "in vivo, mouse", "conditions": "FIG. 11; IM, 50 μg OVA with 100 ng adjuvant, 14 days post-injection", "experimental": "(§1) Mice (6 per group) were injected intramuscularly with 50 μg of OVA either alone or in combination with 100 ng of the indicated adjuvants (Freund's adjuvant was used as a positive control) as follows: • Group 1: […] of Ova with CFA/IFA (Positive control) • Group 2: 50 μg of Ova • Group 3: 50 μg of Ova and 100 ng of αGalCer • Group 4: 50 μg of Ova and 100 ng of PBS-11 • Group 5: 50 μg of Ova and 100 ng of PBS-14 • Group 6: 50 μg of Ova and 100 ng of PBS-57 • Group 7: 50 μg of Ova and 100 ng of PBS-96 At 14 days post-injection, blood samples were collected and ELISAs for IgG1 and IgG2a were performed using mouse monoclonal antibodies specific for OVA isotype IgG1 or IgG2a. The results are shown as the titer of the antibody in peripheral blood in ng/ml. The results for IgG1 are depicted in FIG. 11 and those for IgG2a are depicted in FIG. 12."}, "[1]": {"test_system": "Ova-specific target cells", "experiment": "in vivo cytotoxic specific cell lysis assay (CD8+ T cell response) in immunized mice", "design": "species or system mouse"}, "OVA specific IgG2a": {"test_system": "OVA specific IgG2a", "experiment": "OVA-specific IgG2a ELISA after intramuscular immunization", "type": "in vivo, mouse", "conditions": "FIG. 12; IM, 50 μg OVA with 100 ng adjuvant, 14 days post-injection", "experimental": "as §1"}, "IFNγ": {"test_system": "IFNγ", "experiment": "in vivo IFNγ release in sera by ELISA 24 hours after inoculation", "design": "species or system C57BL/6 mice", "conditions": "Quantikine kit, FIG. 4", "experimental": "To test the ability of the adjuvant test compounds to stimulate in vivo cytokine release, C57BL/6 mice were administered the compounds at different concentrations intravenously and the production of IFNγ in sera was measured 24 hours later by ELISA. Groups of 3 mice were inoculated intravenously (tail vein) on day 0 as follows: • Group 1: 100 μl of PBS alone • Group 2: 1 μg of αGalCer in 100 μl of PBS • Group 3: 100 ng of αGalCer in 100 μl of PBS • Group 4: 1 ng of αGalCer in 100 μl of PBS • Group 5: 0.1 ng of αGalCer in 100 μl of PBS • Group 6: 100 ng of αGalCer and 100 μg of Ova in 100 μl of PBS • Group 7: 1 μg of PBS-57 in 100 μl of PBS • Group 8: 100 ng of PBS-57 in 100 μl of PBS • Group 9: 1 ng of PBS-57 in 100 μl of PBS • Group 10: 0.1 ng of PBS-57 in 100 μl of PBS • Group 11: 100 ng of PBS-57 and 400 μg of Ova into 100 μl of PBS • Group 12: 1 μg of PBS-14 in 100 μl of PBS • Group 13: 100 ng of PBS-14 in 100 μl of PBS • Group 14: 1 ng of PBS-14 in 100 μl of PBS • Group 15: 0.1 ng of PBS-14 in 100 μl of PBS • Group 16: 100 ng of PBS-14 and 400 μg of Ova in 100 μl of PBS • Group 17: 1 μg of PBS-96 in 100 μl of PBS • Group 18: 100 ng of PBS-96 in 100 μl of PBS • Group 19: 1 ng of PBS-96 in 100 μl of PBS • Group 20: 0.1 ng of PBS-96 in 100 μl of PBS • Group 21: 100 ng of PBS-96 and 400 μg of Ova in 100 μl of PBS. 24 hours after inoculation, blood samples were collected from the mice and IFNγ levels were detected by ELISA kit. Two ELISA kits were used, Quantikine mouse IFNγ (RD systems) was used to test all samples and ELISA mIFNγ (Diaclone) was used to test group 1, 2, 3, 6, 7, 8, 11, 12, 13, 16, 17, 18 and 21. All sera were diluted before use in ELISA as follows:\nResults are expressed as IFNγ concentration (pg/ml) in sera and take into account the dilution factor. FIG. 4 depicts results using the Quantikine mouse IFNγ kit by RD systems. FIG. 4A depicts results of IFNγ levels for mice immunized with PBS-57, FIG. 4B depicts results of IFNγ levels for mice immunized with PBS-14, FIG. 4C depicts results of IFNγ levels for mice immunized with PBS-96 and FIG. 4D depicts results of IFNγ levels for mice immunized with αGalCer. At 0.1 ng, all adjuvant candidates induce cytokine release, but mice immunized with αGalCer produced three- or four-fold less IFNγ than mice immunized with PBS-57, PBS-14 or PBS-96 (1540.57±397.53 pg/ml, 4398.05±880.86 pg/ml, 6669.31±1231.82 pg/ml, 5823.33±720.69 pg/ml respectively).\nAnother set of mice were used to compare the ability of adjuvant compounds to stimulate in vivo cytokine release by the method described above. Five groups of C57BL/6 mice were administered 100 ng of PBS-57, PBS-14, PBS-96, or PBS-11 in 100 μl PBS or 100 μl PBS alone intravenously. The production of IFNγ in sera was measured 24 hours later by ELISA. FIG. 5 depicts results for mice immunized with 100 ng of PBS-11, PBS-96, PBS-14 and PBS-57."}, "[2]": {"test_system": "CD8+ T cells responsive to OVA", "experiment": "SIINFEKL pentamer assay of OVA-specific CD8+ T cells (FACS)", "type": "in vivo, mouse", "conditions": "IM, days 0 and 14, blood day 21", "experimental": "To verify the results obtained using the in vivo cytotoxicity assay described in the Examples above, similar experiments were performed and CD8+ T cell activation was determined by measuring the percentage of OVA-specific CD8+ T cells using a pentamer assay. Briefly, mice were injected intramuscularly with the indicated amounts of OVA and test adjuvant compound at either 1 μg or 100 ng per mouse, respectively on day 0 as follows:\nExperiment A: • Group 1: 100 μl of PBS; • Group 2: 50 μg of Ova into 100 μl PBS; • Group 3: 50 μg of Ova with 1 μg αGalCer; • Group 4: 50 μg of Ova with 1 μg PBS-11 • Group 5: 50 μg of Ova with 1 μg PBS-14 • Group 6: 50 μg of Ova with 1 μg PBS-57 • Group 7: 50 μg of Ova with 1 μg PBS-96\nExperiment B: • Group 1: 100 μl of PBS; • Group 2: 50 μg of Ova into 100 μl PBS; • Group 3: 50 μg of Ova with 100 ng αGalCer; • Group 4: 50 μg of Ova with 100 ng PBS-11 • Group 5: 50 μg of Ova with 100 ng PBS-14 • Group 6: 50 μg of Ova with 100 ng PBS-57 • Group 7: 50 μg of Ova with 100 ng PBS-96 A second injection was administered to the mice on day 14 and blood was collected from the mice on day 21. The lymphocytes were collected and analyzed by FACS analysis using H-2 K^b SIINFEKL pentamer and CD8 antibody to detect CD8+ T cells responsive to OVA."}}}
{"smiles": "CCCCCCCCCCCCCCCCCCCCCCCC(=O)N[C@@H](CO[C@H]1O[C@H](CNC(C)=O)[C@H](O)[C@H](O)[C@H]1O)[C@H](O)[C@H](O)CCCCCCCCCCCCCC", "note": "[PBS-96]", "values": [{"measurement": "OVA-specific IgG1 titer in peripheral blood", "setting": "OVA-specific IgG1", "value": "able to elicit a robust IgG1 titer"}, {"measurement": "specific lysis of Ova-specific target cells in blood", "setting": "[1]; Example 1, FIG. 1, IV, 1 μg adjuvant with 50 μg Ova, day 11", "value": "resulted in cytotoxic lysis of Ova-specific target cells"}, {"measurement": "average Ova-specific cytotoxic response", "setting": "[1]; Example 2, FIG. 2, IV, 400 μg Ova with or without 1 μg adjuvant, day 11 blood", "value": "89.2±10.3", "unit": "%"}, {"measurement": "average OVA-specific cytotoxic response", "setting": "[1]; Example 2, FIG. 3, IM, 400 μg Ova with or without 1 μg adjuvant, day 11 blood", "value": "50.29±42.6", "unit": "%"}, {"measurement": "average Ova-specific cell lysis", "setting": "[1]; Example 4, FIG. 6, IV, 400 μg Ova with or without 1 μg adjuvant (PBS-57 new formulation), day 11 blood", "value": "89.2±10.3", "unit": "%"}, {"measurement": "enhancement of the CD8+ T cell response (specific lysis) at low doses", "setting": "[1]; Example 5 Experiments A and B, FIGS. 7 and 8, 50 μg OVA with 100 ng or 10 ng adjuvant intramuscularly", "value": "unexpectedly better than other adjuvants"}, {"measurement": "OVA specific IgG2a titer in peripheral blood", "setting": "OVA specific IgG2a", "value": "about as well as Freund's adjuvant"}, {"measurement": "IFNγ concentration in sera", "setting": "IFNγ; 0.1 ng IV", "value": "5823.33 ± 720.69", "unit": "pg/mL"}, {"measurement": "IFNγ concentration in sera", "setting": "IFNγ; 1 ng IV", "value": "6271.95 ± 3737.53", "unit": "pg/mL"}, {"measurement": "IFNγ concentration in sera", "setting": "IFNγ; 100 ng IV", "value": "19679.89 ± 1443.48", "unit": "pg/mL"}, {"measurement": "IFNγ concentration in sera", "setting": "IFNγ; 1 μg IV", "value": "17720.11 ± 2869.97", "unit": "pg/mL"}, {"measurement": "percentage of OVA specific CD8+ T cells", "setting": "[2]; Example 6 Experiment A, FIG. 9, 50 μg Ova with 1 μg adjuvant", "value": "enhanced the percentage of OVA specific CD8+ T cells"}, {"measurement": "percentage of OVA specific CD8+ T cells", "setting": "[2]; Example 6 Experiment B, FIG. 10, 50 μg Ova with 100 ng adjuvant", "value": "surprisingly much better at enhancing the CD8+ T cell response"}]}
